# From PubChem BioAssay (NCI)
#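 Step 1: Grow cells in 96-well plates. Step 2: Expose to compound for 48 hours at 5 concentrations. Step 3: Interpolate endpoints linearly; if unreached, use highest concentration. Abbreviation: GI50, concentration required for 50% inhibition of growth. TGI denotes the concentration required for complete inhibition of growth.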
# Experiments:
# Assay in all cases: growth of human tumour cells (NCI), 48 h
# HT29 colon = test system: HT29 colon
# LOX IMVI melanoma = test system: LOX IMVI melanoma
# A498 renal = test system: A498 renal
# HCT-15 colon = test system: HCT-15 colon
# ACHN renal = test system: ACHN renal
# HCT-116 colon = test system: HCT-116 colon
# KM12 colon = test system: KM12 colon
# MCF7 breast = test system: MCF7 breast
# OVCAR-4 ovarian = test system: OVCAR-4 ovarian
# SF-295 CNS = test system: SF-295 CNS
# COLO 205 colon = test system: COLO 205 colon
# NCI-H226 lung = test system: NCI-H226 lung
# MALME-3M melanoma = test system: MALME-3M melanoma
# UACC-62 melanoma = test system: UACC-62 melanoma
# NCI-H460 lung = test system: NCI-H460 lung
# OVCAR-8 ovarian = test system: OVCAR-8 ovarian
# SK-MEL-5 melanoma = test system: SK-MEL-5 melanoma
# T-47D breast = test system: T-47D breast
# SNB-75 CNS = test system: SNB-75 CNS
# HCC-2998 colon = test system: HCC-2998 colon
# HOP-92 NSCLC = test system: HOP-92 NSCLC
# UACC-257 melanoma = test system: UACC-257 melanoma
# DU-145 prostate = test system: DU-145 prostate
# SN12C renal = test system: SN12C renal
# U251 CNS = test system: U251 CNS
# PC-3 prostate = test system: PC-3 prostate
# IGROV1 ovarian = test system: IGROV1 ovarian
# A549 NSCLC = test system: A549 NSCLC
# HS 578T breast = test system: HS 578T breast
# NCI-H522 lung = test system: NCI-H522 lung
# SK-MEL-28 melanoma = test system: SK-MEL-28 melanoma
# 786-0 renal = test system: 786-0 renal
# HOP-62 NSCLC = test system: HOP-62 NSCLC
# SK-MEL-2 melanoma = test system: SK-MEL-2 melanoma
# NCI/ADR-RES ovarian = test system: NCI/ADR-RES ovarian
# UO-31 renal = test system: UO-31 renal
# SW-620 colon = test system: SW-620 colon
# SF-268 CNS = test system: SF-268 CNS
# OVCAR-3 ovarian = test system: OVCAR-3 ovarian
# BT-549 breast = test system: BT-549 breast
# HL-60(TB) leukemia = test system: HL-60(TB) leukemia
# SNB-19 CNS = test system: SNB-19 CNS
# RXF 393 renal = test system: RXF 393 renal
# SR leukemia = test system: SR leukemia
# MDA-MB-435 = test system: MDA-MB-435
# NCI-H23 lung = test system: NCI-H23 lung
# RPMI-8226 leukemia = test system: RPMI-8226 leukemia
# MDA-MB-231 breast = test system: MDA-MB-231 breast
# CCRF-CEM leukemia = test system: CCRF-CEM leukemia
# TK-10 renal = test system: TK-10 renal
# K-562 leukemia = test system: K-562 leukemia
# CAKI-1 renal = test system: CAKI-1 renal
# SK-OV-3 ovarian = test system: SK-OV-3 ovarian
# EKVX NSCLC = test system: EKVX NSCLC
# OVCAR-5 ovarian = test system: OVCAR-5 ovarian
# MOLT-4 leukemia = test system: MOLT-4 leukemia
# M14 melanoma = test system: M14 melanoma
# SF-539 CNS = test system: SF-539 CNS
smiles,measurement,setting,value
C=C1C(=O)O[C@H]2[C@H]3O[C@@H](C[C@@H]12)[C@@]1(C)CC[C@H](O1)[C@H](C)CCC[C@H]3C,TGI,HT29 colon,3.04 µM
same,TGI,LOX IMVI melanoma,2.94 µM
same,TGI,A498 renal,3.17 µM
same,TGI,HCT-15 colon,3.55 µM
same,TGI,ACHN renal,2.84 µM
same,TGI,HCT-116 colon,2.49 µM
same,TGI,KM12 colon,4.05 µM
same,TGI,MCF7 breast,3.98 µM
same,TGI,OVCAR-4 ovarian,3.4 µM
same,TGI,SF-295 CNS,17.4 µM
same,TGI,COLO 205 colon,3.33 µM
same,TGI,NCI-H226 lung,3.87 µM
same,TGI,MALME-3M melanoma,3.24 µM
same,TGI,UACC-62 melanoma,6.32 µM
same,TGI,NCI-H460 lung,3.7 µM
same,TGI,OVCAR-8 ovarian,2.82 µM
same,TGI,SK-MEL-5 melanoma,2.72 µM
same,TGI,T-47D breast,5.53 µM
same,TGI,SNB-75 CNS,3.15 µM
same,TGI,HCC-2998 colon,2.57 µM
same,TGI,HOP-92 NSCLC,3.48 µM
same,TGI,UACC-257 melanoma,3.41 µM
same,TGI,DU-145 prostate,2.86 µM
same,TGI,SN12C renal,6.61 µM
same,TGI,U251 CNS,2.82 µM
same,TGI,PC-3 prostate,3.01 µM
same,TGI,IGROV1 ovarian,2.74 µM
same,TGI,A549 NSCLC,5.09 µM
same,TGI,HS 578T breast,12.4 µM
same,TGI,NCI-H522 lung,2.84 µM
same,TGI,SK-MEL-28 melanoma,3.1 µM
same,TGI,786-0 renal,2.63 µM
same,TGI,HOP-62 NSCLC,16.3 µM
same,TGI,SK-MEL-2 melanoma,4.62 µM
same,TGI,NCI/ADR-RES ovarian,2.99 µM
same,TGI,UO-31 renal,2.9 µM
same,TGI,SW-620 colon,4.26 µM
same,TGI,SF-268 CNS,3.34 µM
same,TGI,OVCAR-3 ovarian,2.37 µM
same,TGI,BT-549 breast,2.17 µM
same,TGI,HL-60(TB) leukemia,1.27 µM
same,TGI,SNB-19 CNS,21.7 µM
same,TGI,RXF 393 renal,5.24 µM
same,TGI,SR leukemia,0.448 µM
same,TGI,MDA-MB-435,2.61 µM
same,TGI,NCI-H23 lung,3.18 µM
same,TGI,RPMI-8226 leukemia,2.35 µM
same,TGI,MDA-MB-231 breast,3.12 µM
same,TGI,CCRF-CEM leukemia,2.99 µM
same,TGI,TK-10 renal,2.98 µM
same,TGI,K-562 leukemia,3.59 µM
same,TGI,CAKI-1 renal,2.58 µM
same,TGI,SK-OV-3 ovarian,19.5 µM
same,TGI,EKVX NSCLC,2.84 µM
same,TGI,OVCAR-5 ovarian,3.38 µM
CCN(Cc1ccc(F)cc1)c1ccc(CO)c(C)c1,GI50,HT29 colon,20.7 µM
same,TGI,HT29 colon,55.8 µM
same,GI50,LOX IMVI melanoma,14.9 µM
same,TGI,LOX IMVI melanoma,29 µM
same,GI50,A498 renal,0.216 µM
same,TGI,A498 renal,1.14 µM
same,GI50,HCT-15 colon,8.86 µM
same,TGI,HCT-15 colon,39.4 µM
same,GI50,ACHN renal,12.5 µM
same,TGI,ACHN renal,39.4 µM
same,GI50,HCT-116 colon,2.02 µM
same,TGI,HCT-116 colon,17.6 µM
same,GI50,KM12 colon,19.6 µM
same,TGI,KM12 colon,45.1 µM
same,GI50,MCF7 breast,15.1 µM
same,TGI,MCF7 breast,> 52.2 µM
same,GI50,OVCAR-4 ovarian,2.46 µM
same,TGI,OVCAR-4 ovarian,14.3 µM
same,GI50,SF-295 CNS,10.9 µM
same,TGI,SF-295 CNS,32.8 µM
same,GI50,COLO 205 colon,5.7 µM
same,TGI,COLO 205 colon,19 µM
same,GI50,NCI-H226 lung,0.291 µM
same,TGI,NCI-H226 lung,1.12 µM
same,GI50,MALME-3M melanoma,5.58 µM
same,TGI,MALME-3M melanoma,17.3 µM
same,GI50,MOLT-4 leukemia,15.5 µM
same,TGI,MOLT-4 leukemia,58.8 µM
same,GI50,UACC-62 melanoma,1.19 µM
same,TGI,UACC-62 melanoma,6.87 µM
same,GI50,NCI-H460 lung,11.5 µM
same,TGI,NCI-H460 lung,32.3 µM
same,GI50,OVCAR-8 ovarian,11.9 µM
same,TGI,OVCAR-8 ovarian,38.4 µM
same,GI50,SK-MEL-5 melanoma,10.2 µM
same,TGI,SK-MEL-5 melanoma,22.8 µM
same,GI50,T-47D breast,0.92 µM
same,TGI,T-47D breast,6.95 µM
same,GI50,SNB-75 CNS,4.1 µM
same,TGI,SNB-75 CNS,20.2 µM
same,GI50,HCC-2998 colon,14.6 µM
same,TGI,HCC-2998 colon,29.4 µM
same,GI50,HOP-92 NSCLC,8.45 µM
same,TGI,HOP-92 NSCLC,27 µM
same,GI50,UACC-257 melanoma,2.92 µM
same,TGI,UACC-257 melanoma,15 µM
same,GI50,DU-145 prostate,21.1 µM
same,TGI,DU-145 prostate,59.2 µM
same,GI50,SN12C renal,19.3 µM
same,TGI,SN12C renal,> 82.6 µM
same,GI50,U251 CNS,12.1 µM
same,TGI,U251 CNS,40.1 µM
same,GI50,PC-3 prostate,11.6 µM
same,TGI,PC-3 prostate,32.3 µM
same,GI50,IGROV1 ovarian,1.25 µM
same,TGI,IGROV1 ovarian,6.16 µM
same,GI50,A549 NSCLC,17.1 µM
same,TGI,A549 NSCLC,69.4 µM
same,GI50,M14 melanoma,14.3 µM
same,TGI,M14 melanoma,37.6 µM
same,GI50,HS 578T breast,11.7 µM
same,TGI,HS 578T breast,64.8 µM
same,GI50,NCI-H522 lung,8.52 µM
same,TGI,NCI-H522 lung,22 µM
same,GI50,SK-MEL-28 melanoma,13.3 µM
same,TGI,SK-MEL-28 melanoma,28.6 µM
same,GI50,786-0 renal,13 µM
same,TGI,786-0 renal,29.5 µM
same,GI50,HOP-62 NSCLC,17.7 µM
same,TGI,HOP-62 NSCLC,39.1 µM
same,GI50,SK-MEL-2 melanoma,7.58 µM
same,TGI,SK-MEL-2 melanoma,22.8 µM
same,GI50,NCI/ADR-RES ovarian,16.8 µM
same,TGI,NCI/ADR-RES ovarian,53.5 µM
same,GI50,UO-31 renal,9.34 µM
same,TGI,UO-31 renal,25.1 µM
same,GI50,SW-620 colon,14.5 µM
same,TGI,SW-620 colon,54.1 µM
same,GI50,SF-268 CNS,24.9 µM
same,TGI,SF-268 CNS,> 58.9 µM
same,GI50,SF-539 CNS,15 µM
same,TGI,SF-539 CNS,29.8 µM
same,GI50,OVCAR-3 ovarian,11.1 µM
same,TGI,OVCAR-3 ovarian,24.1 µM
same,GI50,BT-549 breast,5.15 µM
same,TGI,BT-549 breast,24.5 µM
same,GI50,HL-60(TB) leukemia,9.86 µM
same,TGI,HL-60(TB) leukemia,39.3 µM
same,GI50,SNB-19 CNS,31.4 µM
same,TGI,SNB-19 CNS,> 100 µM
same,GI50,RXF 393 renal,8.47 µM
same,TGI,RXF 393 renal,23.3 µM
same,GI50,SR leukemia,20.3 µM
same,TGI,SR leukemia,58.1 µM
same,GI50,MDA-MB-435,18 µM
same,TGI,MDA-MB-435,45.5 µM
same,GI50,NCI-H23 lung,13.2 µM
same,TGI,NCI-H23 lung,37.1 µM
same,GI50,RPMI-8226 leukemia,6.69 µM
same,TGI,RPMI-8226 leukemia,37.1 µM
same,GI50,MDA-MB-231 breast,16.6 µM
same,TGI,MDA-MB-231 breast,35.7 µM
same,GI50,CCRF-CEM leukemia,19.7 µM
same,TGI,CCRF-CEM leukemia,59.2 µM
same,GI50,TK-10 renal,0.884 µM
same,TGI,TK-10 renal,4.2 µM
same,GI50,K-562 leukemia,9.03 µM
same,TGI,K-562 leukemia,> 72.5 µM
same,GI50,CAKI-1 renal,3.28 µM
same,TGI,CAKI-1 renal,25.5 µM
same,GI50,SK-OV-3 ovarian,8.91 µM
same,TGI,SK-OV-3 ovarian,41.5 µM
same,GI50,OVCAR-5 ovarian,0.856 µM
same,TGI,OVCAR-5 ovarian,4.46 µM
